In brackets after ≈: the same amount, converted by molar mass. Entries after “also recorded” stand apart in the source; their conditions may differ.

The subject of data set [1] is ALDH1A1. Kind of data set: ALDH1A1 concentration by ELISA in 769-P cells. Type of data set: cell-based, human. The protocol:
(§1) The effect of compounds WZ1–WZ4 on ALDHA1 levels was investigated (Figure 10). The Du145, HepG2 and 769-P cell lines were treated with the calculated IC25 values for each compound.
(§2) Selected cell lines, viz HepG2, Du145 and 769-P, were seeded into 6-well plates and incubated for 24 h after seeding with compounds at a concentration equal to IC25. After a further 24 h or 48 h, cells were detached with trypsin and centrifuged. The resulting cell pellet was resuspended in 0.5 mL PBS. The samples were then sonicated, and protein was determined using the Bradford method (Bio-rad; Hercules, CA, USA). Samples were equilibrated to 10 mg/mL of protein, and ALDH1A1 was determined in the samples prepared in this way. ALDH1A1 determination was performed using an ELISA (SEE824Hu; Cloud Clone Corp., Katy, TX, USA), according to the manufacturer’s protocol.
Background: An ELISA detects its analyte on a solid surface through an enzyme-linked reagent.

The nature of data set [2]: in vitro. The data set is classed as cell-based, sheep. Conditions: sheep. The procedure: The toxicity of WZ1–WZ4 compounds towards red blood cells was tested using the erythrocyte lysis assay (ELA). Erythrocytes from fresh sheep blood (BioMaxima S.A., Poland) were centrifuged and washed with 0.85% NaCl. Next, 100 μL of a 2% suspension of red blood cells in physiological saline was added to the wells of microtiter plate. The double dilutions of compounds WZ1–WZ4 were prepared in the range of 2000–15.62 μg/mL. Appropriate controls were used to assess the hemolytic potential of tested compounds, i.e., 100% lysis of erythrocytes using 4% Triton X-100 (Pol-Aura, Różnowo, Poland) and 0% lysis in saline solution. Next, all sample plates were incubated (1 h at 37 °C), centrifuged for 10 min to separate unlysed red blood cells, and the supernatant was placed in a new plate. The ELA is a biological test by which the lytic response can be measured spectrophotometrically (at a wavelength of 450 nm) by the amount of hemoglobin released. The hemolysis percentage was calculated according to the following equation:(1) % Hemolysis = A450 of test compound treated sample − A450 of buffer treated sample/A450 of 4% Triton X100 treated samples − A450 of buffer treated sample × 100

The subject of data set [3] is Candida spp. In words: Broth microdilution, summary over reference Candida spp. Conditions: for MFC: Candida, yeasts; for MFC/MIC: reference yeasts, except WZ4 towards C. parapsilosis. The data set is classed as cell-based. An excerpt: (§3) Reference strains of microorganisms that came from American Type Culture Collection (ATCC) (Manassas, VA, USA) were used for this study. The representative Gram-positive bacteria were as follows: Staphylococcus aureus ATCC 25923, Staphylococcus aureus ATCC 29213, Staphylococcus aureus ATCC 43300, Staphylococcus epidermidis ATCC 12228, Enterococcus faecalis ATCC 29212, Micrococcus luteus ATCC 10240, Bacillus subtilis ATCC 6633 and Bacillus cereus ATCC 10876. While, those of Gram-negative bacteria were as follows: Bordetella bronchiseptica ATCC 4617, Escherichia coli ATCC 25922, Klebsiella pneumoniae ATCC 13883, Proteus mirabilis ATCC 12453, Salmonella Typhimurium ATCC 14028 and Pseudomonas aeruginosa ATCC 9027. Moreover, the following fungi belonging to yeasts were used: Candida albicans ATCC 10231, Candida albicans ATCC 2091, Candida parapsilosis ATCC 22019, Candida glabrata ATCC 90030 and Candida krusei ATCC 14243.
(§4) The new compounds WZ1–WZ4 were assayed for both antibacterial and antifungal activity using the broth microdilution method in accordance with the European Committee on Antimicrobial Susceptibility Testing (EUCAST) and Clinical and Laboratory Standards Institute (CLSI) guidelines. The microorganisms were grown at 35 °C for 18–24 h on appropriate media (nutrient agar and Sabouraud for bacteria and fungi, respectively) (BioMaxima S.A., Lublin, Poland). Next, microbial suspensions with an optical density of 0.5 McFarland standard scale (in sterile 0.85% NaCl) were prepared. In turn, the tested compounds were initially diluted at 50 mg/mL in dimethyl sulfoxide (DMSO) and the broth microdilution method was used to assess their minimum inhibitory concentrations (MICs). For these studies, selective broth Mueller-Hinton (MH) (BioMaxima S.A., Lublin, Poland) and RPMI (Roswell Park Memorial Institute) 1640 with MOPS (3-(N-Morpholino)propanesulfonic acid) (Sigma-Aldrich Chemicals, St. Louis, MO, USA) were used for bacteria and fungi, respectively. The antimicrobial effect of compounds WZ1–WZ4 was determined in the concentration range from 2000 to 0.98 µg/mL.
(§5) Then, the microbial suspensions were introduced into each well of the microplate and incubated for 18–24 h at 35 °C. […] The reference drugs ciprofloxacin or vancomycin (against bacteria) and nystatin (against fungi) (Sigma-Aldrich Chemicals, St. Louis, MO, USA) were also used. Next, the values of the minimum bactericidal concentration (MBC) and minimum fungicidal concentration (MFC) of WZ1–WZ4 were assessed. For this purpose, the cultures from each MIC determination well were transferred to a suitable solid medium and incubated under appropriate conditions. The lowest concentrations of compounds without microbial growth were read as MBC or MFC. The studies were performed in triplicate and representative data were gathered.
(§6) In turn, the MBC/MIC or MFC/MIC ratios were used to assess bactericidal/fungicidal (MBC/MIC or MFC/MIC ≤ 4) and bacteriostatic/fungistatic (MBC/MIC or MFC/MIC > 4) effect of these compounds [93].
For orientation: In broth dilution the organism is exposed to a series of concentrations in liquid medium.

Data set [4] deals with Gram-positive bacteria. Kind of data set: Broth microdilution, summary over reference Gram-positive bacteria. Type of data set: cell-based. Conditions: for share of reference Gram-positive strains with moderate activity: moderate activity: MIC 126–500 µg/mL; for share of reference Gram-positive strains with moderate activity / share of reference Gram-positive strains with no activity / share of reference Gram-positive strains with good activity / share of reference Gram-positive strains with mild activity: 8 strains; for share of reference Gram-positive strains with no activity: no activity: MIC > 1000 µg/mL; for share of reference Gram-positive strains with good activity: good activity: MIC 26–125 µg/mL; for share of reference Gram-positive strains with mild activity: mild activity: MIC 501–1000 µg/mL.
Text: as §3, §4, §5, §6

Data set [5] relates to ALDH1A1. Kind of data set: ALDH1A1 concentration by ELISA in Du145 cells. The data set is classed as cell-based, human. The procedure: as §1, §2
Setting [6] is: almost all Gram-positive bacteria.

What is called MIC is the lowest concentration found to suppress growth. A high value points to weaker potency. In the case of `O=S(=O)(NNC(=S)NC1CCCCC1)c1ccccc1` [WZ1, 2-(Benzenesulfonyl)-N-Cyclohexylhydrazine-1-Carbothioamide], the “ALDH1A1 concentration compared to control” value in data set [1] (compound at IC25, 24 h) is on record as “decrease”. In data set [2], this compound registered a hemolysis at 1 h, 15.62 μg/mL of 0%; a hemolysis at 1 h, 31.25 μg/mL of 0%; a hemolysis at 1 h, 62.5 μg/mL of 0%; a hemolysis at 1 h, 125 μg/mL of 2.11%. In data set [2], this compound came in with a hemolysis at 1 h, 250 μg/mL of 7.89%; a hemolysis at 1 h, 500 μg/mL of 14.2%; a hemolysis at 1 h, 1000 μg/mL of 18.4%; a hemolysis at 1 h, 2000 μg/mL of 34.7%. Moreover, the anticandidal bioactivity class result in data set [3] (reference Candida spp.) is reported as “no anticandidal bioactivity”. In data set [4] (Enterococcus faecalis, Gram-positive bacteria except E. faecalis), this compound displayed an MIC of 250 to 500 µg/mL (≈ 798 to 1600 µM). In data set [4] (setting [6]), this compound displayed a minimum inhibitory concentration (MIC) of 62.5 to 500 µg/mL (≈ 199 to 1600 µM). Also, in data set [4], the “share of reference Gram-positive strains with moderate activity” value (“share … with moderate activity” below) was found to be 87.5% and the “share of reference Gram-positive strains with no activity” value worked out at 12.5%.
As usually defined, the MFC is the smallest concentration meeting the test's criterion for killing the fungus. Read a low MFC as greater fungicidal potency. In the case of `CCCCCCNC(=S)NNS(=O)(=O)c1ccccc1` [WZ3, 2-(Benzenesulfonyl)-N-Hexylhydrazine-1-Carbothioamide], the “ALDH1A1 concentration compared to control” value in data set [1] (compound at IC25, 24 h) is given as “increase”. Moreover, the “ALDH1A1 concentration compared to control” value in data set [5] (compound at IC25, 48 h) is on record as “decrease; also recorded: significantly reduced”. In data set [2], this compound gave a hemolysis at 1 h, 15.62 μg/mL of 0%; a hemolysis at 1 h, 31.25 μg/mL of 0%; a hemolysis at 1 h, 62.5 μg/mL of 0%; a hemolysis at 1 h, 125 μg/mL of 1.14%. Moreover, in data set [2], the hemolysis at 1 h, 250 μg/mL is 11.4%; the hemolysis at 1 h, 500 μg/mL is 18.2%; the hemolysis at 1 h, 1000 μg/mL is 43.2%; the hemolysis at 1 h, 2000 μg/mL came to 85.8%. Besides, in data set [3] (C. albicans and C. krusei), the MIC fell in the range of 250 to 500 µg/mL (≈ 792 to 1580 µM). Besides, in data set [3], the MFC was 500 to 2000 µg/mL (≈ 1580 to 6340 µM) and the MFC/MIC was 1–4. Besides, the MIC in data set [3] (reference Candida spp.) lay in the range of 125 to 2000 µg/mL (≈ 396 to 6340 µM). The MIC in data set [4] (Bacillus subtilis, remaining Gram-positive microorganisms (other than B. subtilis)) lay in the range of 250 to 500 µg/mL (≈ 792 to 1580 µM). In data set [4] (setting [6]), the MIC was 62.5 to 500 µg/mL (≈ 198 to 1580 µM). In data set [4], the “share of reference Gram-positive strains with good activity” value turned out to be 12.5% and the “share … with moderate activity” value was determined as 87.5%. The MBC/MIC ratio in data set [4] (most Gram-positive bacteria) is recorded as 1–4.
Turning to `CNC(=S)NNS(=O)(=O)c1ccccc1` [WZ4, 2-(Benzenesulfonyl)-N-Methylhydrazine-1-Carbothioamide], the “ALDH1A1 concentration compared to control” value in data set [1] (compound at IC25, 24 h) is reported as “decrease”. Further, the “ALDH1A1 concentration compared to control” value in data set [1] (compound at IC25, 48 h) was “significant decrease”. Besides, the “ALDH1A1 concentration compared to control” value in data set [5] (compound at IC25, 24 h) is listed as “decrease”. Besides, the “ALDH1A1 concentration compared to control” value in data set [5] (compound at IC25, 48 h) is reported as “decrease; also recorded: significantly reduced”. In data set [2], this compound yielded a hemolysis at 1 h, 15.62 μg/mL of 0%; a hemolysis at 1 h, 31.25 μg/mL of 0%; a hemolysis at 1 h, 62.5 μg/mL of 0%; a hemolysis at 1 h, 125 μg/mL of 3.16%. In data set [2], this compound gave a hemolysis at 1 h, 250 μg/mL of 15.8%; a hemolysis at 1 h, 500 μg/mL of 45.3%; a hemolysis at 1 h, 1000 μg/mL of 88.4%; a hemolysis at 1 h, 2000 μg/mL of 100%. The minimum inhibitory concentration (MIC) in data set [3] (C. albicans and C. krusei) was 250 to 500 µg/mL (≈ 1020 to 2040 µM). For the same compound, in data set [3], the MFC lay within 500 to 2000 µg/mL (≈ 2040 to 8150 µM) and the MFC/MIC is reported as 1–4. This compound showed a minimal inhibitory concentration (MIC) in data set [3] (reference Candida spp.) of 125 to 2000 µg/mL (≈ 510 to 8150 µM). The MIC in data set [4] (Staphylococcus aureus ATCC 43300, Staphylococcus aureus ATCC 25923 and Micrococcus luteus) lay in the range of 250 to 500 µg/mL (≈ 1020 to 2040 µM). For the same compound, in data set [4] (Staphylococcus epidermidis, Bacillus subtilis and Bacillus cereus), the MIC lay in the range of 62.5 to 125 µg/mL (≈ 255 to 510 µM). Further, in data set [4] (setting [6]), the MIC is 62.5 to 500 µg/mL (≈ 255 to 2040 µM). Further, in data set [4], the “share of reference Gram-positive strains with good activity” value came out at 37.5%, the “share of reference Gram-positive strains with mild activity” value came to 25% and the “share … with moderate activity” value was found to be 37.5%. In addition, the MBC/MIC ratio in data set [4] (most Gram-positive bacteria) was 1–4.
As to `CCCCNC(=S)NNS(=O)(=O)c1ccccc1` [WZ2, 2-(Benzenesulfonyl)-N-Butylhydrazine-1-Carbothioamide], in data set [1] (compound at IC25, 24 h), the “ALDH1A1 concentration compared to control” value is recorded as “no significant changes”. In data set [1] (compound at IC25, 48 h), the “ALDH1A1 concentration compared to control” value is recorded as “significant decrease”. For the same compound, the “ALDH1A1 concentration compared to control” value in data set [5] (compound at IC25, 24 h) is “increased”. In data set [5] (compound at IC25, 48 h), the “ALDH1A1 concentration compared to control” value is given as “decrease; also recorded: significantly reduced”. In data set [2], this compound gave a hemolysis at 1 h, 15.62 μg/mL of 0%; a hemolysis at 1 h, 31.25 μg/mL of 0%; a hemolysis at 1 h, 62.5 μg/mL of 0%; a hemolysis at 1 h, 125 μg/mL of 3.15%. In data set [2], this compound showed a hemolysis at 1 h, 250 μg/mL of 8.95%; a hemolysis at 1 h, 500 μg/mL of 19.5%; a hemolysis at 1 h, 1000 μg/mL of 27.9%; a hemolysis at 1 h, 2000 μg/mL of 36.8%. In addition, in data set [3] (reference Candida spp.), the anticandidal bioactivity class entry is on record as “no anticandidal bioactivity”. Besides, in data set [4], the “share of reference Gram-positive strains with mild activity” value came out at 62.5% and the “share of reference Gram-positive strains with no activity” value worked out at 37.5%. Also, 1000 µg/mL (≈ 3480 µM) was the least that counted as inhibitory in data set [4] (most Gram-positive bacteria) (MIC).

The record behind these values is article PMC10747733, “N-Substituted 2-(Benzenosulfonyl)-1-Carbotioamide Derivatives Exert Antimicrobial and Cytotoxic Effects via Aldehyde Dehydrogenase Pathway: Synthesis, In Silico and In Vitro Studies” (Pharmaceuticals, 2023).
